These are literature values, as cited in patent US11399559B2, “Nutritional products having improved lipophilic solubility and bioavailability in an easily mixable form” (ABBOTT LABORATORIES, priority 2015, dated 2022).

Where two headings read alike, the source gives them in different places.

In the case of `Cc1c(C)c2c(c(C)c1O)CC[C@@](C)(CCC[C@H](C)CCC[C@H](C)CCCC(C)C)O2` [RRR-alpha-tocopherol], the “Biological activity relative to all-rac-alpha-tocopherol” value is recorded as 1.36 times (accepted nutritional guidelines) and “about 2 times” (recent studies).
